Test results from patent US20120142580A1, “OPIOID RECEPTORS STIMULATING COMPOUNDS (THYMOQUINONE, NIGELLA SATIVA) AND FOOD ALLERGY” (NESTEC S.A., priority 2009, published 2012).

What was measured:
OVA-sensitized mice = test: Murine model of OVA-induced allergic diarrhea: diarrhea scores; format: in vivo, Balb/c mice
Description: Male Balb/c mice were sensitized by intraperitoneal injection of ovalbumin (OVA) together with aluminium potassium sulphate.
(§1) Briefly, following sensitization (2 intraperitoneal injections of OVA and aluminium potassium sulphate at an interval of 14 days) adult male Balb/c mice were orally challenged with OVA for 6 times (days 28, 30, 33, 35, 37, 40) resulting in transient clinical symptoms (diarrhea) and changes of immune parameters (plasma concentration of total IgE, OVA specific IgE, mouse mast cell protease 1 (MMCP-1) as well as Th2 type cytokine production of ex vivo OVA re-stimulated mesenteric lymphocytes (MLN)). Substances, to be tested, were administered either by subcutaneous injection (thymoquinone and naloxone methiodide according to the literature) or by gavage (Nigella sativa extract).

κ-hOR = κ-hOR (Homo sapiens, UniProt P41145); test: Ligand displacement from κ-opioid receptor; format: binding; conditions: 100 μM
δ-hOR = δ-hOR (Homo sapiens, UniProt P41143); test: Ligand displacement from δ-opioid receptor; format: binding; conditions: 100 μM
[1] = system: mouse mast cell protease 1 (MMCP-1); test: Murine model of OVA-induced allergic diarrhea: plasma MMCP-1; format: in vivo, Balb/c mice; conditions: thymoquinone study; 4th challenge; FIG. 2
Description: as §1
At large the MMCP-1 concentration in plasma correlates with the number of mast cells in the tissue which are known to be key players of diarrhea development in this mouse model (Brandt, E. B., et al., 2003, J. Clin. Invest 112, 1666-1677).

μ-hOR = μ-hOR (Homo sapiens, UniProt P35372); test: Ligand displacement from μ-opioid receptor; format: binding; conditions: 100 μM
Sequence of μ-hOR (P35372 whole entry): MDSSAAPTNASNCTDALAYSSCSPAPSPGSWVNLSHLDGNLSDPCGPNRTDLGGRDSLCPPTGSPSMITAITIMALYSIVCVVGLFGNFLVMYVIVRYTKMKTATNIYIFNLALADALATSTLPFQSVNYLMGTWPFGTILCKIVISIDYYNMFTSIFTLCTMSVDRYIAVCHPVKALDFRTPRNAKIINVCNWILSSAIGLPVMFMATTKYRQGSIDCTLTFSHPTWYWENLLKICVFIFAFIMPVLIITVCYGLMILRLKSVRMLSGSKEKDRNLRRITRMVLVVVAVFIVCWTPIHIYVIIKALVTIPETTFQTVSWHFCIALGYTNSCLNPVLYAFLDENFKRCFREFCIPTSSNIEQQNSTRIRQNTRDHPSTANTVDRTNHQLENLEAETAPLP

Sequence of κ-hOR (P41145 whole entry): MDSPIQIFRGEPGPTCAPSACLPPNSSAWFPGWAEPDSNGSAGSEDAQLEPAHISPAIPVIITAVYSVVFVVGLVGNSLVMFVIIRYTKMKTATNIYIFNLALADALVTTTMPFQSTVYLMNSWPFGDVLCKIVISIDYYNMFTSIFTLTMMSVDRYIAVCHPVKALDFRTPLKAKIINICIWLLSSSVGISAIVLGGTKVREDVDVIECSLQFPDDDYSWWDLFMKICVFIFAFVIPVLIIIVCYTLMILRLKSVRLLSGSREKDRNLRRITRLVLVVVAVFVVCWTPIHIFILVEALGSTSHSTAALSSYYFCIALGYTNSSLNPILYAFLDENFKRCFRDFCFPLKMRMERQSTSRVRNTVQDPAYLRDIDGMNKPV
Sequence of δ-hOR (P41143 whole entry): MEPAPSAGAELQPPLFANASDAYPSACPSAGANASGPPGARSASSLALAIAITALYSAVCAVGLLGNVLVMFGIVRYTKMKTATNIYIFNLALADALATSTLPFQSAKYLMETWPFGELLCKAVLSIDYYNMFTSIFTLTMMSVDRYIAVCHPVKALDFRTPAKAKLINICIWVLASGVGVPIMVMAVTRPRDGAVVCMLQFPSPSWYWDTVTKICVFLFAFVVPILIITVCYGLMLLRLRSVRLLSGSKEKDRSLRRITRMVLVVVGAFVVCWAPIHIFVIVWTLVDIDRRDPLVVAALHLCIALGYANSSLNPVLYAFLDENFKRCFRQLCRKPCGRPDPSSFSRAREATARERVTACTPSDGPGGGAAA

Structure (SMILES) | diarrhea score (Median ±RobustSD) (OVA-sensitized mice; 3rd challenge, FIG. 3, OVA control 1±1.2) | diarrhea score (Median ±RobustSD) (OVA-sensitized mice; 4th challenge, FIG. 3, OVA control 2±3.6) | diarrhea score (Median ±RobustSD) (OVA-sensitized mice; 5th challenge, FIG. 3, OVA control 4±0) | diarrhea score (Median ±RobustSD) (OVA-sensitized mice; 6th challenge, FIG. 3, OVA control 4.5±1.2) | κ-hOR % ligand displacement (κ-hOR) [%] | δ-hOR % ligand displacement (δ-hOR) [%] | plasma MMCP-1 compared to non-treated OVA challenged controls [1] | diarrhea score (Median ±RobustSD) (OVA-sensitized mice; OVA-challenged mice treated with thymoquinone (subcutaneous), after 6th challenge, FIG. 1, OVA control 5±0) | clinical symptoms compared to non-treated mice (OVA-sensitized mice; thymoquinone 4 days prior to sensitization and during challenge period, after 6th challenge) | μ-hOR % ligand displacement (μ-hOR) [%]
C=CC[N+]1(C)CC[C@]23c4c5ccc(O)c4O[C@H]2C(=O)CC[C@@]3(O)[C@H]1C5.[I-] (stereo partly shown) [Naloxone, naloxone methiodide] | 2±1.2 | 3.5±1.2 | 4±0 | 5±0 |  |  |  |  |  | 
CC1=CC(=O)C(C(C)C)=CC1=O [Thymoquinone, 2-Isopropyl-5-methyl-1,4-benzoquinone] |  |  |  |  | 37 | 48 | significantly lower | 3±1.79 | significantly improve | 45
